# Results as given in PubChem BioAssay (NCI).
#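 Assay format: 96-well plates, 48-hour exposure. GI50 marks 50% less growth. The concentration for full growth arrest is given as TGI.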
# Assays:
# Assay in all cases: inhibition of tumour cell growth, NCI panel, 48 h
# 786-0 renal = tested on: 786-0 renal
# A498 renal = tested on: A498 renal
# A549 NSCLC = tested on: A549 NSCLC
# ACHN renal = tested on: ACHN renal
# BT-549 breast = tested on: BT-549 breast
# CAKI-1 renal = tested on: CAKI-1 renal
# CCRF-CEM leukemia = tested on: CCRF-CEM leukemia
# COLO 205 colon = tested on: COLO 205 colon
# DU-145 prostate = tested on: DU-145 prostate
# EKVX NSCLC = tested on: EKVX NSCLC
# HCC-2998 colon = tested on: HCC-2998 colon
# HCT-116 colon = tested on: HCT-116 colon
# HCT-15 colon = tested on: HCT-15 colon
# HL-60(TB) leukemia = tested on: HL-60(TB) leukemia
# HOP-62 NSCLC = tested on: HOP-62 NSCLC
# HOP-92 NSCLC = tested on: HOP-92 NSCLC
# HS 578T breast = tested on: HS 578T breast
# HT29 colon = tested on: HT29 colon
# IGROV1 ovarian = tested on: IGROV1 ovarian
# K-562 leukemia = tested on: K-562 leukemia
# KM12 colon = tested on: KM12 colon
# LOX IMVI melanoma = tested on: LOX IMVI melanoma
# M14 melanoma = tested on: M14 melanoma
# MALME-3M melanoma = tested on: MALME-3M melanoma
# MCF7 breast = tested on: MCF7 breast
# MDA-MB-435 = tested on: MDA-MB-435
# MDA-MB-468 breast = tested on: MDA-MB-468 breast
# MOLT-4 leukemia = tested on: MOLT-4 leukemia
compound,measurement,setting,value
CO[C@@H]1CSSC1Cn1nc(-c2ccc(Oc3ccccc3)cc2)c2c(N)ncnc21 (stereo partly specified),GI50,786-0 renal,> 100 µM
same,TGI,786-0 renal,> 100 µM
same,GI50,A498 renal,99 µM
same,TGI,A498 renal,> 100 µM
same,GI50,A549 NSCLC,13.9 µM
same,TGI,A549 NSCLC,> 100 µM
same,GI50,ACHN renal,12.3 µM
same,TGI,ACHN renal,> 100 µM
same,GI50,BT-549 breast,> 100 µM
same,TGI,BT-549 breast,> 100 µM
same,GI50,CAKI-1 renal,> 100 µM
same,TGI,CAKI-1 renal,> 100 µM
same,GI50,CCRF-CEM leukemia,4.29 µM
same,TGI,CCRF-CEM leukemia,> 100 µM
same,GI50,COLO 205 colon,53.2 µM
same,TGI,COLO 205 colon,> 100 µM
same,GI50,DU-145 prostate,> 100 µM
same,TGI,DU-145 prostate,> 100 µM
same,GI50,EKVX NSCLC,7.29 µM
same,TGI,EKVX NSCLC,> 100 µM
same,GI50,HCC-2998 colon,21 µM
same,TGI,HCC-2998 colon,> 100 µM
same,GI50,HCT-116 colon,5.36 µM
same,TGI,HCT-116 colon,> 100 µM
same,GI50,HCT-15 colon,33.3 µM
same,TGI,HCT-15 colon,> 100 µM
same,GI50,HL-60(TB) leukemia,6.13 µM
same,TGI,HL-60(TB) leukemia,> 100 µM
same,GI50,HOP-62 NSCLC,16.4 µM
same,TGI,HOP-62 NSCLC,> 100 µM
same,GI50,HOP-92 NSCLC,> 100 µM
same,TGI,HOP-92 NSCLC,> 100 µM
same,GI50,HS 578T breast,> 100 µM
same,TGI,HS 578T breast,> 100 µM
same,GI50,HT29 colon,6.82 µM
same,TGI,HT29 colon,> 100 µM
same,GI50,IGROV1 ovarian,> 100 µM
same,TGI,IGROV1 ovarian,> 100 µM
same,GI50,K-562 leukemia,3.6 µM
same,TGI,K-562 leukemia,> 100 µM
same,GI50,KM12 colon,8.73 µM
same,TGI,KM12 colon,> 100 µM
same,GI50,LOX IMVI melanoma,43.9 µM
same,TGI,LOX IMVI melanoma,> 100 µM
same,GI50,M14 melanoma,1.99 µM
same,TGI,M14 melanoma,4.35 µM
same,GI50,MALME-3M melanoma,62.7 µM
same,TGI,MALME-3M melanoma,> 100 µM
same,GI50,MCF7 breast,6.87 µM
same,TGI,MCF7 breast,> 100 µM
same,GI50,MDA-MB-435,3.19 µM
same,TGI,MDA-MB-435,10.2 µM
same,GI50,MDA-MB-468 breast,5.18 µM
same,TGI,MDA-MB-468 breast,86.5 µM
same,GI50,MOLT-4 leukemia,2.24 µM
same,TGI,MOLT-4 leukemia,6.52 µM
